Measurements as given in the supplement of paper PMC10627819.

How the values were obtained:
S. pneumoniae D39V [1] = assay: Bliss interaction score (quartile over a dose matrix) (fitness difference); higher = more antagonism (negative = synergy)
Summary of the method: (§1)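 Fitness was defined as normalised growth: OD595 at the start of stationary phase divided by the plate's robust no-drug mean and capped at 1. Single-drug fitness was inferred from combination measurements. The Bliss score is observed fitness minus the product of the single-drug values, summarised by quartiles across technical, biological and donor/recipient replicates.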

S. aureus DSM 20231 [2] = assay: as above
Summary of the method: as §1

B. subtilis 168 [3] = assay: as above
Summary of the method: as §1

S. aureus Newman [4] = assay: as above
Summary of the method: as §1

S. pneumoniae D39V [5] = assay: fitness (endpoint OD595 vs no drug) (fraction); higher = more growth
Summary of the method: (§2)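 Bacterial fitness was scored as optical density at the stationary-phase transition relative to the robust mean of no-drug control wells. Scores are capped at 1. The growth data were OD595 readings every 30 min for 14 h at 37 °C, background-subtracted against the first reading, from 384-well plates inoculated at OD595 0.01 in TSB, LB Lennox or CY.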

S. aureus DSM 20231 [6] = assay: as above
Summary of the method: as §2

B. subtilis 168 [7] = assay: as above
Summary of the method: as §2

S. aureus Newman [8] = assay: as above
Summary of the method: as §2
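Throughout, for Bliss interaction score (quartile over a dose matrix): first quartile when negative (synergy) and third quartile when positive (antagonism).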
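Throughout, for fitness (endpoint OD595 vs no drug): OD595 on entry to stationary phase over no-drug wells; at most 1.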

CCC[C@@H]1C[C@@H](C(=O)N[C@@H]([C@H]2O[C@H](SC)[C@H](O)[C@@H](O)[C@H]2O)[C@H](C)Cl)N(C)C1 [Clindamycin] + CN(N=O)C(=O)N[C@@H](C=O)[C@@H](O)[C@H](O)[C@H](O)CO [Streptozotocin]
Details	Bliss interaction score
B. subtilis 168 [3]	0.0373
S. aureus DSM 20231 [2]	-0.0342
S. aureus Newman [4]	0.0448
S. pneumoniae D39V [1]	-0.0563

fitness
Details	partner 0.15 µg/mL	partner 0.3 µg/mL	partner 0.6 µg/mL	partner 1.2 µg/mL	partner 2.4 µg/mL	partner 4.8 µg/mL
S. aureus DSM 20231 [6], first compound 0.0625 µg/mL	0.0812	0.0698	0.0805	–	–	–
S. aureus DSM 20231 [6], first compound 0.125 µg/mL	0.0369	0.0299	0.0239	–	–	–
S. aureus Newman [8], first compound 0.0312 µg/mL	0.608	0.612	0.475	–	–	–
S. aureus Newman [8], first compound 0.0625 µg/mL	0.329	0.336	0.243	–	–	–
S. aureus Newman [8], first compound 0.125 µg/mL	0.0373	0.0413	0.0299	–	–	–
S. pneumoniae D39V [5], first compound 0.0125 µg/mL	–	–	–	0.661	0.682	0.688
S. pneumoniae D39V [5], first compound 0.025 µg/mL	–	–	–	0.413	0.439	0.445
S. pneumoniae D39V [5], first compound 0.05 µg/mL	–	–	–	0.175	0.207	0.196

fitness, one replicate
Details	first compound 0.0039 µg/mL	first compound 0.0078 µg/mL	first compound 0.015 µg/mL	first compound 0.0156 µg/mL	first compound 0.03 µg/mL	first compound 0.06 µg/mL	first compound 0.0625 µg/mL	first compound 0.125 µg/mL	first compound 0.25 µg/mL
B. subtilis 168 [7], partner 0.15 µg/mL	1	0.954	–	0.951	–	–	0.545	0.41	0.378
B. subtilis 168 [7], partner 0.3 µg/mL	≥ 1	0.857	–	0.894	–	–	0.504	0.383	0.366
B. subtilis 168 [7], partner 0.6 µg/mL	≥ 1	0.915	–	0.89	–	–	0.521	0.374	0.365
S. pneumoniae D39V [5], partner 1.2 µg/mL	–	–	0.817	–	0.702	0.595	–	–	–
S. pneumoniae D39V [5], partner 2.4 µg/mL	–	–	0.908	–	0.79	0.666	–	–	–
S. pneumoniae D39V [5], partner 4.8 µg/mL	–	–	0.909	–	0.71	0.554	–	–	–

CCC[C@@H]1C[C@@H](C(=O)N[C@@H]([C@H]2O[C@H](SC)[C@H](O)[C@@H](O)[C@H]2O)[C@H](C)Cl)N(C)C1 [Clindamycin] + CN[C@@H]1[C@H](O)[C@H](NC)[C@H]2O[C@@]3(O)C(=O)C[C@@H](C)O[C@H]3O[C@@H]2[C@H]1O [Spectinomycin]
Details	Bliss interaction score
B. subtilis 168 [3]	-0.0853
S. aureus DSM 20231 [2]	-0.0511
S. aureus Newman [4]	-0.147
S. pneumoniae D39V [1]	0.0544

fitness
Details	partner 2 µg/mL	partner 4 µg/mL	partner 8 µg/mL	partner 16 µg/mL
B. subtilis 168 [7], first compound 0.0625 µg/mL	0.508	0.46	0.383	–
B. subtilis 168 [7], first compound 0.125 µg/mL	0.37	0.365	0.251	–
B. subtilis 168 [7], first compound 0.25 µg/mL	0.363	0.327	0.155	–
S. aureus DSM 20231 [6], first compound 0.125 µg/mL	–	0.0615	0.0809	0.0399
S. aureus Newman [8], first compound 0.0312 µg/mL	–	0.564	0.579	0.466
S. aureus Newman [8], first compound 0.125 µg/mL	–	0.0748	0.109	0.0841
S. pneumoniae D39V [5], first compound 0.0125 µg/mL	–	0.672	0.656	0.601
S. pneumoniae D39V [5], first compound 0.025 µg/mL	–	0.457	0.409	0.396
S. pneumoniae D39V [5], first compound 0.05 µg/mL	–	0.248	0.231	0.19

one replicate
Details	fitness
B. subtilis 168 [7], first compound 0.0039 µg/mL, partner 2 µg/mL	0.988
B. subtilis 168 [7], first compound 0.0039 µg/mL, partner 4 µg/mL	0.98
B. subtilis 168 [7], first compound 0.0039 µg/mL, partner 8 µg/mL	≥ 1
B. subtilis 168 [7], first compound 0.0078 µg/mL, partner 2 µg/mL	0.897
B. subtilis 168 [7], first compound 0.0078 µg/mL, partner 4 µg/mL	0.898
B. subtilis 168 [7], first compound 0.0078 µg/mL, partner 8 µg/mL	0.904
B. subtilis 168 [7], first compound 0.0156 µg/mL, partner 2 µg/mL	0.904
B. subtilis 168 [7], first compound 0.0156 µg/mL, partner 4 µg/mL	0.903
B. subtilis 168 [7], first compound 0.0156 µg/mL, partner 8 µg/mL	0.851
S. aureus DSM 20231 [6], first compound 0.0312 µg/mL, partner 32 µg/mL	0.105
S. aureus DSM 20231 [6], first compound 0.0312 µg/mL, partner 64 µg/mL	0.0235
S. aureus DSM 20231 [6], first compound 0.0625 µg/mL, partner 32 µg/mL	0.0623
S. aureus DSM 20231 [6], first compound 0.0625 µg/mL, partner 64 µg/mL	0.0291
S. aureus DSM 20231 [6], first compound 0.125 µg/mL, partner 32 µg/mL	0.0592
S. aureus DSM 20231 [6], first compound 0.125 µg/mL, partner 64 µg/mL	0.0326
S. aureus Newman [8], first compound 0.0312 µg/mL, partner 32 µg/mL	0.0927
S. aureus Newman [8], first compound 0.0312 µg/mL, partner 64 µg/mL	0.0581
S. aureus Newman [8], first compound 0.0625 µg/mL, partner 32 µg/mL	0.0269
S. aureus Newman [8], first compound 0.0625 µg/mL, partner 64 µg/mL	0.0621
S. aureus Newman [8], first compound 0.125 µg/mL, partner 32 µg/mL	0.0191
S. aureus Newman [8], first compound 0.125 µg/mL, partner 64 µg/mL	0.0457
S. pneumoniae D39V [5], first compound 0.015 µg/mL, partner 4 µg/mL	0.935
S. pneumoniae D39V [5], first compound 0.015 µg/mL, partner 8 µg/mL	0.899
S. pneumoniae D39V [5], first compound 0.03 µg/mL, partner 4 µg/mL	0.765
S. pneumoniae D39V [5], first compound 0.03 µg/mL, partner 8 µg/mL	0.754
S. pneumoniae D39V [5], first compound 0.06 µg/mL, partner 4 µg/mL	0.657
S. pneumoniae D39V [5], first compound 0.06 µg/mL, partner 8 µg/mL	0.671
